Experimental data: patent publication US8269000B2, “Substituted pyrimidine and triazine compounds” (Gruenenthal GmbH, priority 2008, dated 2012)

biological target: T1, rat B1R (Rattus norvegicus, UniProt P97583); assay: FLIPR Ca2+ functional study on bradykinin receptor 1 (rB1R CHO K1 cells); assay type: cell-based; conditions: CHO-K1, % inhibition rat B1R at 10 μM, read-out: % inh. (rat B1R) 10 μM
T1 construct: expressed in transfected cells; host or cells: CHO K1 cells
T1 sequence (P97583 1-337): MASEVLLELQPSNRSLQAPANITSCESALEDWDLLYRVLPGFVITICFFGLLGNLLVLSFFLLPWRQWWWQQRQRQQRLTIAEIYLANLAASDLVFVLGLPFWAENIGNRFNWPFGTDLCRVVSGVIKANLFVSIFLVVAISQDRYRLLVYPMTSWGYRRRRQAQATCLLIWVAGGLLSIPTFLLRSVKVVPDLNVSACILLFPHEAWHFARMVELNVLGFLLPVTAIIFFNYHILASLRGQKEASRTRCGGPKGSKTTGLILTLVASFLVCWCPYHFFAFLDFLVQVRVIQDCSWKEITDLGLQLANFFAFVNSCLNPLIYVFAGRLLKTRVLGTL
In short: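 CHO K1 cells stably expressing human or rat B1R were loaded with Fluo-4 and read on FLIPR (ex 488/em 540 nm, peak counts). Test compound (10 μM, or a concentration range for IC50) was added first for % activation versus control agonist; after 10-20 min, EC80 Lys-Des-Arg9-bradykinin (human) or Des-Arg9-bradykinin (rat) was added, giving % inhibition of maximum. n=2-3, N≥2.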

Row | inhibition at 10 µM [%] | SMILES
1 | 101 | COc1cc(C)c(S(=O)(=O)N2CCCCC2COc2nccc(N3CCC(c4cccc(F)c4)(N4CCN(C)CC4)CC3)n2)c(C)c1 (stereo not shown) [G_CC-104, 4-[4-(3-fluorophenyl)-4-(4-methyl-piperazin-1-yl)-piperidin-1-yl]-2-[[1-[(4-methoxy-2,6-dimethyl-phenyl)sulfonyl]-piperidin-2-yl]-methoxy]-pyrimidine]
2 | 102 | COc1cc(C)c(S(=O)(=O)N(C)C(COc2nccc(N3CCC(CCCN4CCCC4)(c4cccnc4)CC3)n2)c2ccccc2)c(C)c1 (stereo not shown) [G_CC-108, 4-methoxy-N,2,6-trimethyl-N-[1-phenyl-2-[4-[4-pyridin-3-yl-4-(3-pyrrolidin-1-yl-propyl)-piperidin-1-yl]-pyrimidin-2-yl]oxy-ethyl]-benzenesulfonic acid amide]
3 | 98 | COc1cc(C)c(S(=O)(=O)N2CCC[C@H]2COc2nccc(N3CCn4cc(CN5CCCCC5)nc4C3)n2)c(C)c1 [G_CC-109, 7-[2-[[(2S)-1-[(4-methoxy-2,6-dimethyl-phenyl)sulfonyl]-pyrrolidin-2-yl]-methoxy]-pyrimidin-4-yl]-2-(piperidin-1-yl-methyl)-5,6,7,8-tetrahydro-imidazo[1,2-a]pyrazine]
4 | 90 | COc1cc(C)c(S(=O)(=O)N2CCCCC2COc2nccc(N3CCC(O)(c4ccncc4)CC3)n2)c(C)c1 (stereo not shown) [G_CC-111, 1-[2-[[1-[(4-methoxy-2,6-dimethyl-phenyl)sulfonyl]-piperidin-2-yl]-methoxy]-pyrimidin-4-yl]-4-pyridin-4-yl-piperidin-4-ol]
5 | 88 | COc1cc(C)c(S(=O)(=O)N(C)C(COc2nccc(N3CCC(O)(c4ccncc4)CC3)n2)c2ccccc2)c(C)c1 (stereo not shown) [G_CC-112, N-[2-[4-(4-hydroxy-4-pyridin-4-yl-piperidin-1-yl)-pyrimidin-2-yl]oxy-1-phenyl-ethyl]-4-methoxy-N,2,6-trimethyl-benzenesulfonic acid amide]
6 | 79 | COc1cc(C)c(S(=O)(=O)N2CCCCC2COc2nccc(N3CCC(c4ccccc4)(N(C)C)CC3)n2)c(C)c1 (stereo not shown) [G_CC-113, [1-[2-[[1-[(4-methoxy-2,6-dimethyl-phenyl)sulfonyl]-piperidin-2-yl]-methoxy]-pyrimidin-4-yl]-4-phenyl-piperidin-4-yl]-dimethyl-amine]
7 | 54 | COc1cc(C)c(S(=O)(=O)N2CCCC(Oc3nccc(N4CCC(c5ccccc5)(N5CCCC5)CC4)n3)C2)c(C)c1 (stereo not shown) [G_CC-114, 2-[1-[(4-methoxy-2,6-dimethyl-phenyl)sulfonyl]-piperidin-3-yl]oxy-4-(4-phenyl-4-pyrrolidin-1-yl-piperidin-1-yl)-pyrimidine]

Row | SMILES | inhibition at 10 µM [%]
8 | COc1cc(C)c(S(=O)(=O)N2CCCCC2COc2nccc(N3[C@@H]4CC[C@H]3CC(Oc3cccnc3)C4)n2)c(C)c1 (stereo partly drawn) [G_CC-105, (1S,5R)-8-[2-[[1-[(4-methoxy-2,6-dimethyl-phenyl)sulfonyl]-piperidin-2-yl]-methoxy]-pyrimidin-4-yl]-3-pyridin-3-yloxy-8-azabicyclo[3.2.1]octane] | 101
9 | COc1cc(C)c(S(=O)(=O)N2CCCCC2COc2nccc(N(C)CCN3CCC(O)(c4cccnc4)CC3)n2)c(C)c1 (stereo not shown) [G_CC-106, 1-[2-[[2-[[1-[(4-methoxy-2,6-dimethyl-phenyl)sulfonyl]-piperidin-2-yl]-methoxy]-pyrimidin-4-yl]-methyl-amino]ethyl]-4-pyridin-3-yl-piperidin-4-ol] | 95
10 | COc1cc(C)c(S(=O)(=O)N(C)C(COc2nccc(N3[C@@H]4CC[C@H]3CC(Oc3cccnc3)C4)n2)c2ccccc2)c(C)c1 (stereo partly drawn) [G_CC-107, 4-methoxy-N,2,6-trimethyl-N-[1-phenyl-2-[4-[(1S,5R)-3-pyridin-3-yloxy-8-azabicyclo[3.2.1]octan-8-yl]-pyrimidin-2-yl]oxy-ethyl]-benzenesulfonic acid amide] | 94
